Test results taken from patent US5134140A, “Psychotropic benzofuran derivatives” (American Home Products Corporation, priority 1991, dated 1992).
“Also recorded” adds a separate entry of the source. Like-named read-outs stand apart in the source and are kept apart here.

Columns and labels:
[1] = target: T1, dopamine D2 receptor (Rattus norvegicus, UniProt P61169); assay: D-2 binding, 3H-spiroperidol, homogenized limbic brain tissue
T1 construct: from tissue; host or cells: homogenized limbic brain tissue
Protocol: Modest affinity for the dopamine D2 receptor was established by the standard experimental test procedure of Fields, et al., Brain Res., 136, 578 (1977) and Yamamura et al., eds., Neurotransmitter Receptor Binding, Raven Press, N.Y. (1978) wherein homogenized limbic brain tissue is incubated with ^3 H-spiroperidol and various concentrations of test compound, filtered and washed and shaken with Hydrofluor scintillation cocktail (National Diagnostics) and counted in a Packard 460 CD scintillation counter.

[2] = test system: serotonin syndrome; assay: ability to produce or antagonize the serotonin syndrome in rats; type: in vivo, male Sprague-Dawley CD rats; details: for ED50: Rattus norvegicus
Protocol: Certain of the compounds of this invention were also compared to buspirone in their ability to either produce or antagonize the serotonin syndrome according to the procedure of Smith and Peroutka, Pharmacol. Biochem. Behav. 24:1513-1519, 1986, in which 250-350 g male Sprague-Dawley CD rats (Charles River) are given either test compound or vehicle and placed individually into plexiglass observation cages. Agonist activity of the compound is determined by scoring for the presence of the serotonin syndrome (forepaw treading, head weaving, tremor, hindlimb abduction, flattened body posture, and Straub tail) during the first 15 minutes after compound administration. Antagonist activity is then determined by a challenge with either of the 5-HT1A agonists 5-methoxy-N,N-dimethyltryptamine (5-MeODMT) or 8-hydroxydipropylaminotetralin.

[3] = target: T2, serotonin 5-HT1A receptor (Rattus norvegicus, UniProt P19327); assay: 5-HT1A binding, displacement of [3H] 8-OHDPAT
T2 construct: following the procedure of Hall et al., J. Neurochem; 44, 1685 (1985); from tissue
T2 sequence (P19327 1-422): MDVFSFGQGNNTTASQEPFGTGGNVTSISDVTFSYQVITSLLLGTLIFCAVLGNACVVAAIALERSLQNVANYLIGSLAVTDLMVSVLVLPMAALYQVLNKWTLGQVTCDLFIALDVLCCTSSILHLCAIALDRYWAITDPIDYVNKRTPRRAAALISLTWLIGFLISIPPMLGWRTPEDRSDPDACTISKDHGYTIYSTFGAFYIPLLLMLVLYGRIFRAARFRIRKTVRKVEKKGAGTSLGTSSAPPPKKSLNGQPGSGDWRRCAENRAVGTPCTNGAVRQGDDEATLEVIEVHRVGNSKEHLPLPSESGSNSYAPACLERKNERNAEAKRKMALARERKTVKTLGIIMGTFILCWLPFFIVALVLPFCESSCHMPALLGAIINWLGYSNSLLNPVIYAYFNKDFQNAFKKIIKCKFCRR
Text: High affinity for the serotonin 5-HT1A receptor was established by testing the claimed compound's ability to displace [^3 H] 8-OHDPAT (dipropylaminotetralin) from the 5-HT1A serotonin receptor following the procedure of Hall et al., J. Neurochem. 44, 1685 (1985). […] The anxiolytic activity of buspirone is believed to be, at least partially, due to its 5-HT1A receptor affinity (Vander Maclen et al., Eur. J. Pharmacol. 1986, 129 (1-2) 133-130).

[4] = test system: 5-HT1A receptor; details: cited from earlier work
[5] = target: T2, serotonin 5-HT1A receptor; details: buspirone standard; cited from earlier work
[6] = antagonist activity, challenge with 5-MeODMT or 8-hydroxydipropylaminotetralin, agonist not specified for these values, read-out: ED50, antagonize the serotonin syndrome

T1 sequence (P61169 whole entry): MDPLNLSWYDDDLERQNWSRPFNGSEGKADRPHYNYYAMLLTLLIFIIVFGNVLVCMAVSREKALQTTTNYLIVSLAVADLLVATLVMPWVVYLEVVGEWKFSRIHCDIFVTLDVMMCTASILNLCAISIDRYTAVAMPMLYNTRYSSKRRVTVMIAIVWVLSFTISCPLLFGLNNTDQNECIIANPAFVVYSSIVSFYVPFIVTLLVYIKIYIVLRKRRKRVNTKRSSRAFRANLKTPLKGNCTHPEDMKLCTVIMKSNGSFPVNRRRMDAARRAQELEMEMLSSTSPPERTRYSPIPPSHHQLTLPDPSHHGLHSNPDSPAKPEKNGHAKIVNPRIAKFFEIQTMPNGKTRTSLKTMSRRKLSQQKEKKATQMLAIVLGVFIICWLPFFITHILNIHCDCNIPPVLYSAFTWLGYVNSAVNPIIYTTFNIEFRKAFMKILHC

| inhibition at 0.1 µM [3] | SMILES | also measured |
| --- | --- | --- |
| 100% | COc1cccc2cc(CNCCNC(=O)C34CC5CC(CC(C5)C3)C4)oc12 [Example 2, N-[2-[[(7-Methoxy-2-benzofuranyl)methyl]amino]ethyl]tricyclo[3.3.1.1^3,7]decane-1-carboxamide] | inhibition at 1 µM [1]: 29%; ED50 [2, 6]: 11.7 mg/kg; IC50 [3]: 0.5 nM |
| 61% | COc1cccc2cc(CNCCN3C(=O)CC4(CCCC4)CC3=O)oc12 [Example 3, 8-[2-[[(7-Methoxy-2-benzofuranyl)methyl]amino]ethyl]-8-azaspiro[4.5]decane-7,9-dione] | inhibition at 1 µM [1]: 72% |
| 95% | O=C(NCCNCc1cc2cccc(F)c2o1)C12CC3CC(CC(C3)C1)C2 [Example 13, N-[2-[[(7-Fluoro-2-benzofuranyl)methyl]amino]ethyl]tricyclo[3.3.1.1^3,7]decane-1-carboxamide] | – |
| 31% | COc1cccc2cc(CNCCN3C(=O)C4C5C=CC(C6C=CC65)C4C3=O)oc12 (stereo not shown) [Example 1, 3a, 4,4a, 6a, 7,7a-Hexahydro-2-[2-[[(7-methoxy-2-benzofuranyl)methyl]amino]ethyl]-4,7-etheno-1H-cyclobut[f]isoindole-1,3(2H)-dione] | – |
| 20% | O=C(NCCNCc1cc2ccc(OCc3ccccc3)cc2o1)C12CC3CC(CC(C3)C1)C2 [Example 12, N-[2-[[(6-Phenylmethoxy-2-benzofuranyl)methyl]amino]ethyl]tricyclo[3.3.1.1^3,7]decane-1-carboxamide] | – |
| 63% | COc1ccc2cc(CNCCNC(=O)C34CC5CC(CC(C5)C3)C4)oc2c1OC [Example 9, N-[2-[[(6,7-Dimethoxy-2-benzofuranyl)methyl]amino]ethyl]tricyclo[3.3.1.1^3,7]decane-1-carboxamide] | – |
| – | O=C1CC2(CCCC2)CC(=O)N1CCCCNCC1COc2ccccc2O1 (single isomer, unassigned; (-)) [(-)-MDL 72832] | binding at the 5-HT1A receptor site relative to the dextrorotary isomer ([4]; (-)-isomer vs dextrorotary isomer): 32 times |
| – | O=C1CC2(CCCC2)CC(=O)N1CCCCN1CCN(c2ncccn2)CC1 [buspirone] | ED50 ([2]; 0.25 h, agonist activity, first 15 minutes after administration, read-out: ED50, produced the serotonin syndrome): 7.3 mg/kg; ED50 ([2]; antagonist activity, challenge with 5-MeODMT, read-out: ED50, antagonized 5-MeODMT-induced syndrome): 4.6 mg/kg; characterization in the serotonin syndrome test ([2]; in words): partial agonist; affinity for the serotonin 5-HT1A receptor (in words) [5]: high affinity; also recorded: potent affinity |
| – | O=C1CC2(CCCC2)CC(=O)N1CCCCNCC1COc2ccccc2O1 (stereo not shown) [MDL 72832, 8-[4-(1,4-benzodioxan-2-ylmethylamino)butyl]-8-azaspiro[4.5]decane-7,9-dione] | 5-HT1A receptor ligand character (in words) [4]: selective and stereospecific |
| 90% | COc1cccc2cc(CN(C)CCNC(=O)C34CC5CC(CC(C5)C3)C4)oc12 [Example 10, N-[2-[[(7-Methoxy-2-benzofuranyl)methyl]methylamino]ethyl]tricyclo[3.3.1.1^3,7]decane-1-carboxamide] | IC50 [3]: 9 nM |
| 99% | COc1cccc2cc(CNCCNC(=O)C34CC5CC(CC3C5)C4)oc12 [Example 7, N-[2-[[(7-Methoxy-2-benzofuranyl)methyl]amino]ethyl]hexahydro-2,5-methanopentalene-3a(1H)-carboxamide] | ED50 [2, 6]: 15.4 mg/kg |
| 38% | COc1cccc2cc(CNCCNC(=O)C(C)(C)C)oc12 [Example 11, N-[2-[[(7-Methoxy-2-benzofuranyl)methyl]amino]ethyl]-2,2-dimethylpropanamid] | – |
| 59% | COc1cccc2cc(CNCCN3C(=O)C4CC(C3=O)C3C4C4C5CC6C4C6C53)oc12 (stereo not shown) [Example 4, Decahydro-3-[2-[[(7-methoxy-2-benzofuranyl)methyl]amino]ethyl]-1,5-methano-6,7,9-metheno-2H-pentaleno[1,2-d]azepine-2,4(3H)-dione] | inhibition at 1 µM [1]: 49% |
| 87% | COc1cccc2cc(CNCCNC(=O)c3ccc(F)cc3)oc12 [Example 6] | inhibition at 1 µM [1]: 70% |
| 64% | O=C(NCCNCc1cc2cc(O)ccc2o1)C12CC3CC(CC(C3)C1)C2 [Example 15, N-[2-[[(5-Hydroxy-2-benzofuranyl)methyl]amino]ethyl]tricyclo[3.3.1.1^3,7]decane-1-carboxamide] | – |
| 92% | COc1cccc2cc(CNCCNC(=O)C3(C)CCCCC3)oc12 [Example 8, N-[2-[[(7-Methoxy-2-benzofuranyl)methyl]amino]ethyl]-1-methyl-1-cyclohexanecarboxamide] | – |
| 87% | COc1cccc2cc(CNCCNC(=O)C34CCC(CC3=O)C4(C)C)oc12 (single isomer, unassigned) [Example 5, N-[2-[[(7-Methoxy-2-benzofuranyl)methyl]amino]ethyl]-7,7-dimethyl-2-oxobicyclo[2.2.1]heptane-1-carboxamide] | inhibition at 1 µM [1]: 4% |
| 97% | O=C(NCCNCc1cc2cccc(Cl)c2o1)C12CC3CC(CC(C3)C1)C2 [Example 16, N-[2-[[(7-Chloro-2-benzofuranyl)methyl]amino]ethyl]tricyclo[3.3.1.1^3,7]decane-1-carboxamide] | – |
| 88% | O=C(NCCNCc1cc2ccc(O)cc2o1)C12CC3CC(CC(C3)C1)C2 [Example 17, N-[2-[[(6-Hydroxy-2-benzofuranyl)methyl]amino]ethyl]tricyclo[3.3.1.1^3,7]decane-1-carboxamide] | – |
